Assay [1] deals with Puccinia recondita f. Sp. Tritici. Nature of the assay: Fungicidal activity against Puccinia recondita f. sp. tritici / wheat / leaf disc preventative (brown rust). It counts as in vivo. The conditions noted are these: foliar, 200 ppm in the applied formulation, wheat leaf segments cv. Kanzler, preventative (inoculated 1 day after application), assessed 7 to 9 days after application, compared to untreated, read-out: disease control. How it is done: Leaf disks or leaf segments of various plant species are cut from plants grown in a greenhouse. The cut leaf disks or segments are placed in multiwell plates (24-well format) onto water agar. The leaf disks are sprayed with a test solution before (preventative) or after (curative) inoculation. Compounds to be tested are prepared as DMSO solutions (max. 10 mg/ml) which are diluted to the appropriate concentration with 0.025% Tween20 just before spraying. The inoculated leaf disks or segments are incubated under defined conditions (temperature, relative humidity, light, etc.) according to the respective test system. A single evaluation of disease level is carried out 3 to 14 days after inoculation, depending on the pathosystem. Percent disease control relative to the untreated check leaf disks or segments is then calculated. Example 1: Fungicidal Activity Against Puccinia recondita f. Sp. Tritici/Wheat/Leaf Disc Preventative (Brown Rust) Wheat leaf segments cv. Kanzler were placed on agar in multiwell plates (24-well format) and sprayed with the formulated test compound diluted in water. The leaf disks were inoculated with a spore suspension of the fungus 1 day after application. The inoculated leaf segments were incubated at 19° C. and 75% relative humidity (rh) under a light regime of 12 hours light/12 hours darkness in a climate cabinet and the activity of a compound was assessed as percent disease control compared to untreated when an appropriate level of disease damage appears in untreated check leaf segments (7 to 9 days after application). The following compounds at 200 ppm in the applied formulation give at least 80% disease control in this test when compared to untreated control leaf disks under the same conditions, which show extensive disease development.

Assay [2] has as its system Glomerella lagenarium (Colletotrichum lagenarium). Nature of the assay: Fungicidal activity against Glomerella lagenarium (Colletotrichum lagenarium) liquid culture / cucumber / preventative (anthracnose). It counts as cell-based. The conditions noted are these: Colletotrichum orbiculare; 20 ppm in the applied formulation; liquid culture in PDB, 24° C.; inhibition of growth measured photometrically 3 to 4 days after application; compared to untreated; read-out: disease control. How it is done: Mycelia fragments or conidia suspensions of a fungus prepared either freshly from liquid cultures of the fungus or from cryogenic storage, are directly mixed into nutrient broth. DMSO solutions of the test compound (max. 10 mg/ml) are diluted with 0.025% Tween20 by a factor of 50 and 10 μl of this solution is pipetted into a microtiter plate (96-well format). The nutrient broth containing the fungal spores/mycelia fragments is then added to give an end concentration of the tested compound. The test plates are incubated in the dark at 24° C. and 96% relative humidity. The inhibition of fungal growth is determined photometrically after 2 to 7 days, depending on the pathosystem, and percent antifungal activity relative to the untreated check is calculated. Example 4: Fungicidal Activity Against Glomerella lagenarium (Colletotrichum lagenarium) Liquid Culture/Cucumber/Preventative (Anthracnose) Conidia of the fungus from cryogenic storage are directly mixed into nutrient broth (PDB—potato dextrose broth). After placing a (DMSO) solution of test compound into a microtiter plate (96-well format), the nutrient broth containing the fungal spores is added. The test plates are incubated at 24° C. and the inhibition of growth is measured photometrically 3 to 4 days after application. The following compounds at 20 ppm in the applied formulation give at least 80% disease control in this test when compared to untreated control under the same conditions, which show extensive disease development.

Assay [3] has as its system Uromyces viciae-fabael. Nature of the assay: Fungicidal activity against Uromyces viciae-fabae / field bean / leaf disc preventative (faba-bean rust). It counts as in vivo. The conditions noted are these: foliar, 288 h, 100 ppm in the applied formulation, field bean leaf discs, preventative (inoculated two hours after application), assessed 12 days after application, compared to untreated, read-out: disease control. The protocol:
Leaf disks or leaf segments of various plant species are cut from plants grown in a greenhouse. The cut leaf disks or segments are placed in multiwell plates (24-well format) onto water agar. The leaf disks are sprayed with a test solution before (preventative) or after (curative) inoculation. Compounds to be tested are prepared as DMSO solutions (max. 10 mg/ml) which are diluted to the appropriate concentration with 0.025% Tween20 just before spraying. The inoculated leaf disks or segments are incubated under defined conditions (temperature, relative humidity, light, etc.) according to the respective test system. A single evaluation of disease level is carried out 3 to 14 days after inoculation, depending on the pathosystem. Percent disease control relative to the untreated check leaf disks or segments is then calculated. Example 5: Fungicidal Activity Against Uromyces viciae-fabael Field Bean/Leaf Disc Preventative (Faba-Bean Rust) Field bean leaf discs are placed on water agar in multiwell plates (96-well format) and 10 μl of the formulated test compound diluted in acetone and a spreader pipetted onto the leaf disc. Two hours after application leaf discs are inoculated by spraying a spore suspension on the lower leaf surface. The leaf discs are incubated in a climate cabinet at 22° C. with 18 hour day and 70% relative humidity. The activity of a compound is assessed as percent disease control compared to untreated when an appropriate level of disease damage appears in untreated check leaf disks (12 days after application). The following compounds at 100 ppm in the applied formulation give at least 80% disease control in this test when compared to untreated control leaf discs under the same conditions, which show extensive disease development.

Assay [4] has as its system Phakopsora pachyrhizi. As to the kind of experiment: Fungicidal activity against Phakopsora pachyrhizi / soybean / leaf disc preventative (Asian soybean rust). It counts as in vivo. The conditions noted are these: foliar, 200 ppm in the applied formulation, soybean leaf disks, preventative (inoculated one day after application), assessed 12 to 14 days after application, compared to untreated, read-out: disease control. The protocol:
Leaf disks or leaf segments of various plant species are cut from plants grown in a greenhouse. The cut leaf disks or segments are placed in multiwell plates (24-well format) onto water agar. The leaf disks are sprayed with a test solution before (preventative) or after (curative) inoculation. Compounds to be tested are prepared as DMSO solutions (max. 10 mg/ml) which are diluted to the appropriate concentration with 0.025% Tween20 just before spraying. The inoculated leaf disks or segments are incubated under defined conditions (temperature, relative humidity, light, etc.) according to the respective test system. A single evaluation of disease level is carried out 3 to 14 days after inoculation, depending on the pathosystem. Percent disease control relative to the untreated check leaf disks or segments is then calculated. Example 3: Fungicidal Activity Against Phakopsora pachyrhizi/Soybean/Leaf Disc Preventative (Asian Soybean Rust) Soybean leaf disks are placed on water agar in multiwell plates (24-well format) and sprayed with the formulated test compound diluted in water. One day after application leaf discs are inoculated by spraying a spore suspension on the lower leaf surface. After an incubation period in a climate cabinet of 24-36 hours in darkness at 20° C. and 75% rh leaf disc are kept at 20° C. with 12 h light/day and 75% rh. The activity of a compound is assessed as percent disease control compared to untreated when an appropriate level of disease damage appears in untreated check leaf disks (12 to 14 days after application). The following compounds at 200 ppm in the applied formulation give at least 80% disease control in this test when compared to untreated control leaf disks under the same conditions, which show extensive disease development.

Drawing on patent publication US10757941B2, “Microbiocidal oxadiazole derivatives” (SYNGENTA PARTICIPATIONS AG, priority 2016, dated 2020), this text covers pest or weed control and inhibition of growth for 16 compounds.

As for `O=C(Nc1ccnc2ncnn12)c1ccc(-c2noc(C(F)(F)F)n2)c(F)c1` [Compound 1.9, 3-fluoro-N-([1,2,4]triazolo[1,5-a]pyrimidin-7-yl)-4-[5-(trifluoromethyl)-1,2,4-oxadiazol-3-yl]benzamide], the pest or weed control at 200 ppm in assay [1] was at least 80%. In assay [2], the inhibition of growth at 20 ppm was at least 80%. The pest or weed control at 100 ppm in assay [3] is at least 80%.
`N#CCCN(CCC#N)C(=O)c1ccc(-c2noc(C(F)(F)F)n2)c(F)c1` [Compound 1.29, N,N-bis(2-cyanoethyl)-3-fluoro-4-[5-(trifluoromethyl)-1,2,4-oxadiazol-3-yl]benzamide]: in assay [3], the pest or weed control at 100 ppm was at least 80%.
As to `O=C(NC1CC1c1ccccc1)c1ccc(-c2noc(C(F)(F)F)n2)c(F)c1` (centres unmarked) [Compound 1.34, 3-fluoro-N-(2-phenylcyclopropyl)-4-[5-(trifluoromethyl)-1,2,4-oxadiazol-3-yl]benzamide], the pest or weed control at 100 ppm in assay [3] was at least 80%.
As for `CC1CCCC(C)N1CCNC(=O)c1ccc(-c2noc(C(F)(F)F)n2)c(F)c1` (centres unmarked) [Compound 1.21, N-[2-(2,6-dimethyl-1-piperidyl)ethyl]-3-fluoro-4-[5-(trifluoromethyl)-1,2,4-oxadiazol-3-yl]benzamide], the pest or weed control at 100 ppm in assay [3] is at least 80%.
As to `CCOc1ccc(CN(C(=O)c2ccc(-c3noc(C(F)(F)F)n3)c(F)c2)C(C)C)cc1OCC` [Compound 1.17, N-[(3,4-diethoxyphenyl)methyl]-3-fluoro-N-isopropyl-4-[5-(trifluoromethyl)-1,2,4-oxadiazol-3-yl]benzamide], the pest or weed control at 200 ppm in assay [1] was at least 80%. The inhibition of growth at 20 ppm in assay [2] was at least 80%. Also, in assay [3], the pest or weed control at 100 ppm was at least 80%.
As to `O=C(NCCCn1ccnc1)c1ccc(-c2noc(C(F)(F)F)n2)c(F)c1` [Compound 1.32, 3-fluoro-N-(3-imidazol-1-ylpropyl)-4-[5-(trifluoromethyl)-1,2,4-oxadiazol-3-yl]benzamide], the pest or weed control at 100 ppm in assay [3] is at least 80%.
As for `CCC(C#N)(COc1ccc(C#N)cc1)NC(=O)c1ccc(-c2noc(C(F)(F)F)n2)c(F)c1` (centres unmarked) [Compound 1.24, N-[1-cyano-1-[(4-cyanophenoxy)methyl]propyl]-3-fluoro-4-[5-(trifluoromethyl)-1,2,4-oxadiazol-3-yl]benzamide], in assay [1], the pest or weed control at 200 ppm was at least 80%.
`CC(C)C(C)(C#N)NC(=O)c1ccc(-c2noc(C(F)(F)F)n2)c(F)c1` (centres unmarked) [Compound 1.30, N-(1-cyano-1,2-dimethyl-propyl)-3-fluoro-4-[5-(trifluoromethyl)-1,2,4-oxadiazol-3-yl]benzamide]: the pest or weed control at 200 ppm in assay [1] was at least 80%. Further, the inhibition of growth at 20 ppm in assay [2] was at least 80%.
As to `O=C(Nc1ccccc1)c1ccc(-c2noc(C(F)(F)F)n2)c(F)c1` [Compound 1.33, 3-fluoro-N-phenyl-4-[5-(trifluoromethyl)-1,2,4-oxadiazol-3-yl]benzamide], the pest or weed control at 100 ppm in assay [3] was at least 80%.
Still for that read-out and setting: next, `O=C(NC1CCSCC1)c1ccc(-c2noc(C(F)(F)F)n2)c(F)c1` [Compound 1.7, 3-fluoro-N-tetrahydro-thiopyran-4-yl-4-[5-(trifluoromethyl)-1,2,4-oxadiazol-3-yl]benzamide]: at least 80%.
On to `CC(C)(C)CC(C)(C)NC(=O)c1ccc(-c2noc(C(F)(F)F)n2)c(F)c1` [Compound 1.37, 3-fluoro-N-(1,1,3,3-tetramethylbutyl)-4-[5-(trifluoromethyl)-1,2,4-oxadiazol-3-yl]benzamide], for which, in assay [2], the inhibition of growth at 20 ppm was at least 80%. Moreover, the pest or weed control at 100 ppm in assay [3] is at least 80%.
Consider `O=C(c1ccc(-c2noc(C(F)(F)F)n2)c(F)c1)N(Cc1ccc2c(c1)OCO2)CC1OCCO1` [Compound 1.18, N-(1,3-benzodioxol-5-ylmethyl)-N-(1,3-dioxolan-2-ylmethyl)-3-fluoro-4-[5-(trifluoromethyl)-1,2,4-oxadiazol-3-yl]benzamide], for which the pest or weed control at 200 ppm in assay [1] is at least 80%. Also, in assay [2], the inhibition of growth at 20 ppm was at least 80%. Moreover, in assay [3], the pest or weed control at 100 ppm is at least 80%.
`CCOC(=O)C(CC(F)(F)F)NC(=O)c1ccc(-c2noc(C(F)(F)F)n2)c(F)c1` (centres unmarked) [Compound 1.26, ethyl 4,4,4-trifluoro-2-[[3-fluoro-4-[5-(trifluoromethyl)-1,2,4-oxadiazol-3-yl]benzoyl]amino] butanoate]: in assay [1], the pest or weed control at 200 ppm was at least 80%. The pest or weed control at 100 ppm in assay [3] is at least 80%.
Take `CN1CCC2(CC1)CC(NC(=O)c1ccc(-c3noc(C(F)(F)F)n3)c(F)c1)C2` [Compound 1.11, 3-fluoro-N-(7-methyl-7-azaspiro[3.5]nonan-2-yl)-4-[5-(trifluoromethyl)-1,2,4-oxadiazol-3-yl]benzamide]: the pest or weed control at 100 ppm in assay [3] is at least 80%. Besides, the pest or weed control at 200 ppm in assay [4] was at least 80%.
For `CCOc1ccc(CN(CC2OCCO2)C(=O)c2ccc(-c3noc(C(F)(F)F)n3)c(F)c2)cc1OCC` [Compound 1.19, N-[(3,4-diethoxyphenyl)methyl]-N-(1,3-dioxolan-2-ylmethyl)-3-fluoro-4-[5-(trifluoromethyl)-1,2,4-oxadiazol-3-yl]benzamide], the inhibition of growth at 20 ppm in assay [2] was at least 80%. Also, the pest or weed control at 100 ppm in assay [3] was at least 80%.
Regarding `O=C(NCCCCc1ccccc1)c1ccc(-c2noc(C(F)(F)F)n2)c(F)c1` [Compound 1.1, 3-fluoro-N-(4-phenylbutyl)-4-[5-(trifluoromethyl)-1,2,4-oxadiazol-3-yl]benzamide], in assay [1], the pest or weed control at 200 ppm is at least 80%. The inhibition of growth at 20 ppm in assay [2] is at least 80%. The pest or weed control at 100 ppm in assay [3] is at least 80%.
